{"source": "paper PMC5988308", "about": "“Rhodanine derivatives as potent anti-HIV and anti-HSV microbicides” (PLoS ONE, 2018)", "format_in_all_cases": "cell-based", "key": {"HIV-1 AD8 [1]": {"system": "HIV-1 AD8", "test": "Inhibition of antiviral activity by purified bovine serum albumin (TZM-bl, AD8)", "method": "To confirm the binding of compound 2 to serum albumin, infection was performed in presence of different concentrations of purified bovine serum albumin (BSA, Sigma Aldrich) starting from the concentration that is usually present in FBS serum (35 mg/mL, 1X) and increasing to a five-fold concentration (175 mg/mL) up to a ten-fold concentration (350 mg/mL). […] After one hour, the mixture was added to 40.000 TZM-bl cells/well plated in DMEM supplemented with 50 μg/mL penicillin, 50 μg/mL streptomycin, 30 μg/mL DEAE-dextran and 10% FBS in a 96-well plate. After two days the infection was evaluated through a CPRG assay."}, "HIV-1 NL 4.3 WT": {"system": "HIV-1 NL 4.3 WT", "test": "Antiviral activity on human CD4+ T lymphocytes, NL4.3 WT", "conditions": "Human immunodeficiency virus 1; human CD4+ T lymphocytes; read-out: NL 4.3 WT EC50", "method": "The antiviral activity and cytotoxicity of compounds 2, 9e and 9f was tested also on freshly purified human CD4^+ T lymphocytes obtained from healthy blood donors (informed consent available) as described previously on HIV laboratory strain NL4.3 and AD8 [33, 34]."}, "HIV-1 AD8 [2]": {"system": "HIV-1 AD8", "test": "Inhibition of antiviral activity by fetal bovine serum (TZM-bl, AD8)", "conditions": "FBS 0% to 10%", "method": "To evaluate the binding of compounds to plasma proteins also in a cell based assay, the infection with the HIV laboratory strain AD8 was performed in absence or in presence of different concentrations of Fetal Bovine Serum (FBS): 2%, 5% and 10%. The representative compound 2 was pre-incubated at different concentrations ranging from 10 μM to 3.2 nM with 300 TCID50 /mL of AD8 in DMEM supplemented with 50 μg/mL penicillin, 50 μg/mL streptomycin, 30 μg/mL DEAE-dextran and FBS at the concentration described above. Maraviroc was used as control. After an hour the mixture was added to 40.000 TZM-bl cells/well plated in a 96-well plate and after two days the infection was quantified using a CPRG assay (Roche) as previously described."}}}
{"smiles": "O=C(O)c1ccc(-c2ccc(/C=C3\\SC(=S)N(Cc4ccc(Cl)cc4)C3=O)o2)cc1O", "note": "[Compound 2]", "values": [{"measurement": "reduction of antiviral activity with physiological BSA, compound at 400 nM", "setting": "HIV-1 AD8 [1]; 1X = 35 mg/mL BSA, 400 nM", "value": "about 50%"}, {"measurement": "loss of antiviral activity with physiological BSA, compound at 2 μM", "setting": "HIV-1 AD8 [1]; 1X = 35 mg/mL BSA, 2 μM", "value": 20, "unit": "%"}, {"measurement": "antiviral activity with BSA concentration increased 5 to 10 folds", "setting": "HIV-1 AD8 [1]; 175-350 mg/mL BSA, 400 nM", "value": "complete loss of activity"}, {"measurement": "EC50", "setting": "HIV-1 NL 4.3 WT", "value": "13 ± 3", "unit": "nM"}, {"measurement": "effect of FBS concentration on antiviral activity", "setting": "HIV-1 AD8 [2]", "value": "progressive loss of activity"}]}
